Consider nine compounds from patent US10100045B2, “3-aryl-2H-pyrazolo[4,3-b]pyridine compounds and their use as AMPA receptor modulators” (Janssen Pharmaceutica NV, priority 2016, dated 2018).

Usually pIC50 stands for the negative decadic logarithm of the IC50, by convention in mol/L.

The test has as its target GluA1o-γ8 (GRIA1o-CACNG8 fusion construct; TARP γ8 dependent AMPA receptor) (Homo sapiens (Human), UniProt P42261+Q8WXS5). In words: Calcium flux assay (FLIPR), inhibition of glutamate response of GluA1o-γ8 channel. In kind it is cell-based. The settings on record: HEK293 cells stably expressing GRIA1o-CACNG8 fusion; 15 μM glutamate; negative log of the IC50 in molar. The text has this: This assay was used to test compounds for their ability to inhibit TARP γ8 dependent AMPA receptor activity. The AMPA receptor is a non-selective cation channel activated by glutamate. Ionotropic glutamate receptors normally desensitize too rapidly to allow detectable calcium influx in a FLIPR assay (Strange et al. (2006). “Functional characterisation of homomeric ionotropic glutamate receptors GluR1-GluR6 in a fluorescence-based high throughput screening assay.” Comb Chem High Throughput Screen 9(2): 147-158). But, this desensitization is incomplete, and a substantial steady-state current remains in the sustained presence of glutamate (Cho et al. (2007). “Two families of TARP isoforms that have distinct effects on the kinetic properties of AMPA receptors and synaptic currents.” Neuron 55(6): 890-904). An in vitro assay was used to determine the potency of test compounds as inhibitors of the glutamate response of the channel formed by GluA1o-γ8. To ensure a 1:1 stoichiometry of GluA1o and γ8 subunits in the expressed channel, a fusion of the cDNAs for GRIA1o and CACNG8 was used. Following Shi et al (2009) “The stoichiometry of AMPA receptors and TARPs varies by neuronal cell type.” Neuron 62(5): 633-640), the C-terminus of the cDNA for GRIA1o was fused to the N-terminus of the cDNA for γ8. The linker sequence was QQQQQQQQQQEFAT. Channels expressed with this construct appear to have similar properties to channels formed by co-expression of GRIA1o with an excess of CACNG8 (Shi et al. 2009). A clonal cell line in HEK293 cells stably expressing this construct, with a geneticin selection marker, was generated for use in this assay.
Cell expressing the GRIA1o-CACNG8 fusion construct were grown in a monolayer in 96- or 384-well microtiter plates. They were washed with assay buffer (135 mM NaCl, 4 mM KCl, 3 mM CaCl2, 1 mM MgCl2, 5 mM glucose, 10 mM HEPES, pH 7.4, 300 mOs) using a Biotek EL405 plate washer. The cells were then loaded with a calcium-sensitive dye (Calcium-5 or Calcium-6, Molecular Devices) and the test compounds at a range of concentrations. Calcium flux following the addition of 15 μM glutamate was monitored using a Molecular Devices FLIPR Tetra. The fluorescence in each well was normalized to the fluorescence of negative and positive control wells. The negative control wells had no added compounds, and the positive control wells had been incubated with 10 μM CP465022 (a non-subtype-selective AMPA receptor antagonist) (Lazzaro et al. (2002). “Functional characterization of CP-465,022, a selective, noncompetitive AMPA receptor antagonist.” Neuropharmacology 42(2): 143-153). The responses to glutamate as functions of the test compound concentrations were fitted to a four-parameter logistic function. The fitted parameter corresponding to the midpoint was taken to be the potency of inhibition of the compound. The data in Table 3 below illustrates the observed potentcy for the compounds described herein. pIC50 refers to the negative log of the IC50 in molar.
(Calcium assays in cells follow changes in intracellular calcium, usually with a dye or a luminescent sensor.)

GluA1o-γ8 (GRIA1o-CACNG8 fusion construct; TARP γ8 dependent AMPA receptor), sequence (P42261 other isoform, or with tags, fused parts or gaps): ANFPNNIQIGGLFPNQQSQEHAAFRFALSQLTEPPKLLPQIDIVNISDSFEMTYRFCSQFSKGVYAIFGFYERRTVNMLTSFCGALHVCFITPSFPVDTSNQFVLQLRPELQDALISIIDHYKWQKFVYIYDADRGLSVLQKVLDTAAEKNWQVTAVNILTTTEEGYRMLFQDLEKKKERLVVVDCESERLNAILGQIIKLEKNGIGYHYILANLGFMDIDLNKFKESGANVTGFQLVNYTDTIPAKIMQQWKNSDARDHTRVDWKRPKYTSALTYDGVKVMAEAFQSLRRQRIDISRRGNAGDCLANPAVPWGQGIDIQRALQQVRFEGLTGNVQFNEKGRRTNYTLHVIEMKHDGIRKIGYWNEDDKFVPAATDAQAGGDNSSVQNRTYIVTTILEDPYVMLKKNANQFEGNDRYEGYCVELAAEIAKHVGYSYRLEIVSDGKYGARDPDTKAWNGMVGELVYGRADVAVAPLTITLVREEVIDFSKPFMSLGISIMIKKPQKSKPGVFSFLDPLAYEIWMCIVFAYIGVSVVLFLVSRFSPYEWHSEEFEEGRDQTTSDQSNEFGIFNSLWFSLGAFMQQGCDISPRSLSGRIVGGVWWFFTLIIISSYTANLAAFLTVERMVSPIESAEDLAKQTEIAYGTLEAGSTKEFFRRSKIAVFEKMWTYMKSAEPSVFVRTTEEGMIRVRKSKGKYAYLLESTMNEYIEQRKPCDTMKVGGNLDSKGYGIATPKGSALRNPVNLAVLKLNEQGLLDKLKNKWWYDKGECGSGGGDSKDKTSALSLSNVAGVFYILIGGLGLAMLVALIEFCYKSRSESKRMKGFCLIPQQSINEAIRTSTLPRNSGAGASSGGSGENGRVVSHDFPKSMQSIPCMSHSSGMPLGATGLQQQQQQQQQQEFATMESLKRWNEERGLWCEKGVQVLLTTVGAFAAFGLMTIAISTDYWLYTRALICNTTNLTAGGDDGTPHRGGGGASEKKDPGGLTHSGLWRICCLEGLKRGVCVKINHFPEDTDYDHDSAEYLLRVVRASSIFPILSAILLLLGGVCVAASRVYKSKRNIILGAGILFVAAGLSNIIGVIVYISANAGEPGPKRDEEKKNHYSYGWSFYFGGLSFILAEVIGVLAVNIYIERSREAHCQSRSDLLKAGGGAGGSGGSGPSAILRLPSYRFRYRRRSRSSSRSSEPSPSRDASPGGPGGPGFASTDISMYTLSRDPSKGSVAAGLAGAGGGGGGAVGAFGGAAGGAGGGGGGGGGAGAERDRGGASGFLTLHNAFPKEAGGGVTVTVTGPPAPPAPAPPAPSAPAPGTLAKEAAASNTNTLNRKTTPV

Turning to `FC(F)(F)c1ccc2nn(C3CCC3)c(-c3cc(Cl)c4[nH]ncc4c3)c2n1` [Example 28, 3-(7-Chloro-1H-indazol-5-yl)-2-cyclobutyl-5-(trifluoromethyl)-2H-pyrazolo[4,3-b]pyridine], the negative-log IC50 (pIC50) stood at 10.7.

For `O=C1Cc2cc(-c3c4nc(C(F)(F)F)ccc4nn3C(F)F)cc(Cl)c2N1` [Example 29, 7-Chloro-5-(2-(difluoromethyl)-5-(trifluoromethyl)-2H-pyrazolo[4,3-b]pyridin-3-yl)indolin-2-one], the negative logarithm of the IC50 (pIC50) was determined as 8.6. For the compound `Cc1cc(-c2c3nc(C(F)(F)F)ccc3nn2C(F)F)cc2cn[nH]c12` [Example 30, 2-(Difluoromethyl)-3-(7-methyl-1H-indazol-5-yl)-5-(trifluoromethyl)-2H-pyrazolo[4,3-b]pyridine], the pIC50 was 9.2. The figure for `FC(F)n1nc2ccc(C(F)(F)F)nc2c1-c1cc(Cl)c2[nH]ncc2c1` [Example 31, 3-(7-Chloro-1H-indazol-5-yl)-2-(difluoromethyl)-5-(trifluoromethyl)-2H-pyrazolo[4,3-b]pyridine] is 9.2; for `Cc1cc(-c2c3nc(C(F)F)ccc3nn2C(C)C)cc2cn[nH]c12` [Example 34, 5-(Difluoromethyl)-2-isopropyl-3-(7-methyl-1H-indazol-5-yl)-2H-pyrazolo[4,3-b]pyridine] it is 10.0; for `CC(C)n1nc2ccc(C(F)F)nc2c1-c1cc(Cl)c2c(c1)CC(=O)N2` [Example 36, 7-Chloro-5-(5-(difluoromethyl)-2-isopropyl-2H-pyrazolo[4,3-b]pyridin-3-yl)indolin-2-one] it is 9.4. The figure for `Cc1cc(-c2c3nccc(C(F)F)c3nn2C(C)C)cc2cn[nH]c12` [Example 38, 7-(Difluoromethyl)-2-isopropyl-3-(7-methyl-1H-indazol-5-yl)pyrazolo[4,3-b]pyridine] is 6.9; for `CC(C)n1nc2cccnc2c1-c1cc(Cl)c2[nH]ncc2c1` [Example 39, 3-(7-Chloro-1H-indazol-5-yl)-2-isopropyl-pyrazolo[4,3-b]pyridine] it is 7.2. The figure for `Cc1cc(-c2c3nc(C(F)F)cc(C(F)F)c3nn2C(C)C)cc2cn[nH]c12` [Example 40, 5,7-Bis(difluoromethyl)-2-isopropyl-3-(7-methyl-1H-indazol-5-yl)pyrazolo[4,3-b]pyridine] is 9.8.
